US8008094B2, “Methods for analyzing interactions between proteins and sugar chains” (National Institute of Advanced Industrial Science and …, priority 2003, dated 2011)

What was measured:
[1] = test system: glycoprotein probe derived from mouse brain; experiment: Lectin array (40 lectins) with crude brain-derived glycoprotein probe plus inhibiting sugar (Example 7); format: binding; settings: 10 mM inhibiting sugar added to brain-derived glycoprotein probe, FIG. 14C
Description: A glycoprotein sample extracted and purified from mouse liver and a glycoprotein sample extracted and purified from mouse brain were labeled with Cy3 to form probes, then contacted with a lectin array onto which 40 types of lectins were immobilized, and the sugar chain profile of the entire extracted mouse glycoprotein mixture was observed. Next, 10 mM of lactose was added as a competitively inhibiting sugar to the brain-derived glycoprotein probe used in the previous experiment, and the sugar chain profile was observed (FIG. 14C). […] As shown by this experiment, even when using a lectin array for the sugar chain profiling of cruder samples, comparisons and analyses between individuals can be made easier and faster by the combined use of addition experiments that use various inhibiting sugars, and comparison and analysis after narrowing down the obtained data.

[2] = test system: binding of Cy3-ASF to lectin spots; experiment: Inhibition of lectin-sugar chain interaction on lectin array by competitively inhibiting sugar (Example 1); settings: Cy3-ASF probe, increasing inhibiting sugar concentration

OC[C@H]1O[C@@H](O[C@H]2[C@H](O)[C@@H](O)C(O)O[C@@H]2CO)[C@H](O)[C@@H](O)[C@H]1O (some centres unmarked) [lactose]
change of fluorescence signal pattern due to competitive inhibition [1]: reduction was observed mainly in the signals of lactosamine-recognizing lectins
fluorescence intensity of the spots in the presence of inhibiting sugar [2]: decreases as the concentration of lactose (competitively inhibiting sugar) increases
